The text below walks through data of patent US10189835B2, “Derivatives and methods of treating hepatitis B infections” (Novira Therapeutics, Inc., priority 2014, dated 2019).

One may read the EC50 as the concentration giving half of the maximal effect.

Molecules are shown by their SMILES.

In one assay the test system is HBV replication in HepG2.2.15 cells. As to the kind of experiment: HBV replication inhibition assay (BDNA assay). It is filed as cell-based. The following applies: 6 days of treatment, encapsidated HBV DNA in supernatant by branched DNA QuantiGene assay, listed as 828 E1. The source says:
HBV replication inhibition by the compounds of this invention could be determined in cells infected or transfected with HBV, or cells with stably integrated HBV, such as HepG2.2.15 cells (Sells et al. 1987). In this example, HepG2.2.15 cells were maintained in cell culture medium containing 10% fetal bovine serum (FBS), Geneticin, L-glutamine, penicillin and streptomycin. HepG2.2.15 cells could be seeded in 96-well plates at a density of 40,000 cells/well and be treated with serially diluted compounds at a final DMSO concentration of 0.5% either alone or in combination by adding drugs in a checker box format. Cells were incubated with compounds for three days, after which medium was removed and fresh medium containing compounds was added to cells and incubated for another three days. At day 6, supernatant was removed and treated with DNase at 37° C. for 60 minutes, followed by enzyme inactivation at 75° C. for 15 minutes. Encapsidated HBV DNA was released from the virions and covalently linked HBV polymerase by incubating in lysis buffer (Affymetrix QS0010) containing […] proteinase K at 50° C. for 40 minutes. HBV DNA was denatured by addition of 0.2 M NaOH and detected using a branched DNA (BDNA) QuantiGene assay kit according to manufacturer recommendation (Affymetrix). HBV DNA levels could also be quantified using qPCR, based on amplification of encapsidated HBV DNA extraction with QuickExtraction Solution (Epicentre Biotechnologies) and amplification of HBV DNA using HBV specific PCR probes that can hybridize to HBV DNA and a fluorescently labeled probe for quantitation. In addition, cell viability of HepG2.2.15 cells incubated with test compounds alone or in combination was determined by using CellTitre-Glo reagent according to the manufacturer protocol (Promega). The mean background signal from wells containing only culture medium was subtracted from all other samples, and percent inhibition at each compound concentration was calculated by normalizing to signals from HepG2.2.15 cells treated with 0.5% DMSO using equation E1. % inhibition=(DMSOave−Xi)/DMSOave×100% E1: […]
where DMSOave is the mean signal calculated from the wells that were treated with DMSO control (0% inhibition control) and Xi is the signal measured from the individual wells. EC50 values, effective concentrations that achieved 50% inhibitory effect, were determined by non-linear fitting using Graphpad Prism software (San Diego, Calif.) and equation E2 Y=Ymin+(Ymax−Ymin)/(1+10(LogEC50-X)×HillSlope) E2: […]
where Y represents percent inhibition values and X represents the logarithm of compound concentrations.
Selected compounds of the invention were assayed in the HBV replication assay (BDNA assay), as described above and a representative group of these active compounds is shown in Table 3. […] In Table 3, “A” represents 0.01<EC50<0.10; “B” represents 0.10<EC50<0.50; and “C” represents 0.50<EC50<1.0.
As to `CON(C)C(=O)c1n[nH]c2c1CN(C(=O)Nc1cccc(Cl)c1)C(C)C2` (stereo not shown) [Compound 828 E1, N5-(3-chlorophenyl)-N3-methoxy-N3,6-dimethyl-1,4,6,7-tetrahydropyrazolo [4,3-c]pyridine-3,5-dicarboxamide], the EC50 fell in the range of 10 to 100 nM.

The assay is the same for the next values; noted with them: 6 days of treatment, encapsidated HBV DNA in supernatant by branched DNA QuantiGene assay, listed as 828 E2.
`CON(C)C(=O)c1n[nH]c2c1CN(C(=O)Nc1cccc(Cl)c1)C(C)C2` (stereo not shown) [Compound 828 E2, N5-(3-chlorophenyl)-N3-methoxy-N3,6-dimethyl-1,4,6,7-tetrahydropyrazolo [4,3-c]pyridine-3,5-dicarboxamide]: the half-maximal effective concentration (EC50) was in the range of 100 to 500 nM.

Staying with this assay, now noted: Hepatitis B virus, HepG2.2.15, 144 h, 6 days of treatment, encapsidated HBV DNA in supernatant by branched DNA QuantiGene assay.
`CON(C)C(=O)c1n[nH]c2c1CN(C(=O)Nc1cccc(Cl)c1)CC2` [Compound 434, N5-(3-chlorophenyl)-N3-methoxy-N3-methyl-1,4,6,7-tetrahydropyrazolo [4,3-c]pyridine-3,5-dicarboxamide]: the half-maximal effective concentration (EC50) is 10 to 100 nM. The same measure, in the same setting: as for `CCCC(=O)c1n[nH]c2c1CN(C(=O)Nc1cccc(Cl)c1)CC2` [Compound 561], the figure is 10 to 100 nM; as for `CN(O)C(=O)c1n[nH]c2c1CN(C(=O)Nc1cccc(Cl)c1)CC2` [Compound 587, N5-(3-chlorophenyl)-N3-hydroxy-N3-methyl-6,7-dihydro-1H-pyrazolo[4,3-c]pyridine-3,5(4H)-dicarboxamide], 500 to 1000 nM. Same read-out and setting: the value for `CCN(OC)C(=O)c1n[nH]c2c1CN(C(=O)Nc1cccc(Cl)c1)CC2` [Compound 594, N5-(3-chlorophenyl)-N3-ethyl-N3-methoxy-1,4,6,7-tetrahydropyrazolo [4,3-c]pyridine-3,5-dicarboxamide] was 10 to 100 nM; that for `CON(C(=O)c1n[nH]c2c1CN(C(=O)Nc1cccc(Cl)c1)CC2)C(C)C` [Compound 595, N5-(3-chlorophenyl)-N3-isopropyl-N3-methoxy-1,4,6,7-tetrahydropyrazolo [4,3-c]pyridine-3,5-dicarboxamide] was 100 to 500 nM; that for `CCON(C)C(=O)c1n[nH]c2c1CN(C(=O)Nc1cccc(Cl)c1)CC2` [Compound 599] was 10 to 100 nM. Still for that read-out and setting: the value for `CC(C)ON(C)C(=O)c1n[nH]c2c1CN(C(=O)Nc1cccc(Cl)c1)CC2` [Compound 600, N5-(3-chlorophenyl)-N3-isopropoxy-N3-methyl-1,4,6,7-tetrahydropyrazolo[4,3-c]pyridine-3,5-dicarboxamide] was 10 to 100 nM. On to `CCC(=O)c1n[nH]c2c1CN(C(=O)Nc1cccc(Cl)c1)CC2` [Compound 695, N-(3-chlorophenyl)-3-propanoyl-1,4,6,7-tetrahydropyrazolo [4,3-c]pyridine-5-carboxamide], for which the EC50 lay in the range of 100 to 500 nM. On the same count and under the same terms, as for `O=C(Nc1cccc(Cl)c1)N1CCc2[nH]nc(C(=O)N3CC(O)CO3)c2C1` (stereo not shown) [Compound 697, N-(3-chlorophenyl)-3-(4-hydroxyisoxazolidine-2-carbonyl)-1,4,6,7-tetrahydropyrazolo [4,3-c]pyridine-5-carboxamide], the figure is 500 to 1000 nM; as for `O=C(Nc1cccc(Cl)c1)N1CCc2[nH]nc(C(=O)N3CC(F)CO3)c2C1` (stereo not shown) [Compound 698, N-(3-chlorophenyl)-3-(4-fluoroisoxazolidine-2-carbonyl)-1,4,6,7-tetrahydropyrazolo[4,3-c]pyridine-5-carboxamide], 10 to 100 nM. Still for that read-out and setting: the value for `O=C(Nc1cccc(Cl)c1)N1CCc2[nH]nc(C(=O)N3CCCO3)c2C1` [Compound 699, N-(3-chlorophenyl)-3-(isoxazolidine-2-carbonyl)-1,4,6,7-tetrahydropyrazolo[4,3-c]pyridine-5-carboxamide] was 100 to 500 nM; that for `CCCON(C)C(=O)c1n[nH]c2c1CN(C(=O)Nc1cccc(Cl)c1)CC2` [Compound 795] was 100 to 500 nM. Same read-out and setting: the value for `CN(OCCO)C(=O)c1n[nH]c2c1CN(C(=O)Nc1cccc(Cl)c1)CC2` [Compound 796] was 100 to 500 nM; that for `CC(C)CON(C)C(=O)c1n[nH]c2c1CN(C(=O)Nc1cccc(Cl)c1)CC2` [Compound 798] was 100 to 500 nM.

Take `COCCON(C)C(=O)c1n[nH]c2c1CN(C(=O)Nc1cccc(Cl)c1)CC2` [Compound 800]: the EC50 was 100 to 500 nM. Same read-out and setting: as for `CN(OCC1CC1)C(=O)c1n[nH]c2c1CN(C(=O)Nc1cccc(Cl)c1)CC2` [Compound 803], the figure is 100 to 500 nM. Still for that read-out and setting: as for `CN(OC1CCC1)C(=O)c1n[nH]c2c1CN(C(=O)Nc1cccc(Cl)c1)CC2` [Compound 805], the figure is 10 to 100 nM.

On to `CN(OC1CCOC1)C(=O)c1n[nH]c2c1CN(C(=O)Nc1cccc(Cl)c1)CC2` (stereo not shown) [Compound 910, N5-(3-chlorophenyl)-N3-methyl-N3-tetrahydrofuran-3-yloxy-1,4,6,7-tetrahydropyrazolo[4,3-c]pyridine-3,5-dicarboxamide], for which the half-maximal effective concentration (EC50) lay within 100 to 500 nM.

For the compound `CN1CC(ON(C)C(=O)c2n[nH]c3c2CN(C(=O)Nc2cccc(Cl)c2)CC3)C1` [Compound 912, N5-(3-chlorophenyl)-N3-methyl-N3-(1-methylazetidin-3-yl)oxy-1,4,6,7-tetrahydropyrazolo[4,3-c]pyridine-3,5-dicarboxamide], the EC50 fell in the range of 100 to 500 nM. Same read-out and setting: as for `CN(C)N(C)C(=O)c1n[nH]c2c1CN(C(=O)Nc1cccc(Cl)c1)CC2` [Compound 937], the figure is 10 to 100 nM.
